Measured values from patent US20240208956A1, “1,3,4-OXADIAZOLE THIOCARBONYL COMPOUNDS AS HISTONE DEACETYLASE 6 INHIBITOR, AND PHARMACEUTICAL COMPOSITION COMPRISING THE SAME” (CHONG KUN DANG PHARMACEUTICAL CORP., priority 2021, published 2024).

Legend:
HDAC6 human recombinant = HDAC6 human recombinant (Homo sapiens (Human), UniProt Q9UBN7); test: HDAC enzyme activity inhibition (in vitro), HDAC6 fluorimetric assay; format: biochemical; details: samples at 0.1-1000 nM; 37° C. 60 minutes; fluorescence Ex 390 nm, Em 460 nm
Sequence of HDAC6 human recombinant (Q9UBN7 whole entry): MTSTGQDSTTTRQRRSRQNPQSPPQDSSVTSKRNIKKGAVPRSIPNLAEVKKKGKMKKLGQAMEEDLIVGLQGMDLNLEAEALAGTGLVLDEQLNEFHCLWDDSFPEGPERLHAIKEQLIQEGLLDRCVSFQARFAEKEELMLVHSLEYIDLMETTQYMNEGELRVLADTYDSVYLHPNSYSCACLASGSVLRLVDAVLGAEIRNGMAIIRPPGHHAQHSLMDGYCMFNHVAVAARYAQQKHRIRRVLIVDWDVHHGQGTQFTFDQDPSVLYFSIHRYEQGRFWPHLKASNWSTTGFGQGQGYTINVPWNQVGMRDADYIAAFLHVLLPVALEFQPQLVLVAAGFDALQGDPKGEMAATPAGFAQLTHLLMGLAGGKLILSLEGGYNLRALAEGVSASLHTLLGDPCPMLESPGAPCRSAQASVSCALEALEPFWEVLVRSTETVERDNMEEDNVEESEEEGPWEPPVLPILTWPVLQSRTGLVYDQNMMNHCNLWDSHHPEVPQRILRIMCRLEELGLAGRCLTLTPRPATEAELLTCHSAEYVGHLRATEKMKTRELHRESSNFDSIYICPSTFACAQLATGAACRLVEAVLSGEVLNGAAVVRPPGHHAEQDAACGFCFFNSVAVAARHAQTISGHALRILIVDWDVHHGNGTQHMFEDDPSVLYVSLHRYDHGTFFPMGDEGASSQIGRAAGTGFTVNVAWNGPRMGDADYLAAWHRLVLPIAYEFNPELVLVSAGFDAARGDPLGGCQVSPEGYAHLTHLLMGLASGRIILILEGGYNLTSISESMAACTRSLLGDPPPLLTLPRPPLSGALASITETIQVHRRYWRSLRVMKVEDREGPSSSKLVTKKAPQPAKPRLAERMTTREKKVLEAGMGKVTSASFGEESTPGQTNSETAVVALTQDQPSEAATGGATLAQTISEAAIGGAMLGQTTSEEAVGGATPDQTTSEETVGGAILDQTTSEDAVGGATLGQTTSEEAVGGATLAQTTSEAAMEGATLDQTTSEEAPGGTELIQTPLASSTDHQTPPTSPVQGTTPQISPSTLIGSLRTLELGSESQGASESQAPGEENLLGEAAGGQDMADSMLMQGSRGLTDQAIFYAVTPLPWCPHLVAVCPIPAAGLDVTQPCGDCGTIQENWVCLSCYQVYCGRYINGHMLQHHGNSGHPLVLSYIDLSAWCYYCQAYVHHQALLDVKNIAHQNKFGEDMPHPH
Protocol: Confirmation of HDAC Enzyme Activity Inhibition (In Vitro)
(§1) An HDAC enzyme inhibitory capacity of test material was measured by using HDAC1 Fluorimetric Drug Discovery Assay Kit (Enzolifesciences: BML-AK511) and HDAC6 human recombinant (Calbiochem: 382180). For a HDAC1 assay, samples were treated at a concentration of 100 nM, 1000 nM and 10000 nM. For an HDAC6 assay, samples were treated at a concentration of 0.1 nM, 1 nM, 10 nM, 100 nM and 1000 nM. After the sample treatment, a reaction was continued at 37° C. for 60 minutes, treated with a developer, and subjected to reaction at 37° C. for 30 minutes, after which fluorescence intensity (Ex 390 nm, Em 460 nm) was measured by using FlexStation3 (Molecular device). For final result values, each […] value was calculated with GraphPad Prism 4.0 program.

HDAC1 = HDAC1 (Homo sapiens (Human), UniProt Q13547); test: HDAC enzyme activity inhibition (in vitro), HDAC1 Fluorimetric Drug Discovery Assay Kit; format: biochemical; details: samples at 100, 1000 and 10000 nM; 37° C. 60 minutes; fluorescence Ex 390 nm, Em 460 nm
Sequence of HDAC1 (Q13547 whole entry): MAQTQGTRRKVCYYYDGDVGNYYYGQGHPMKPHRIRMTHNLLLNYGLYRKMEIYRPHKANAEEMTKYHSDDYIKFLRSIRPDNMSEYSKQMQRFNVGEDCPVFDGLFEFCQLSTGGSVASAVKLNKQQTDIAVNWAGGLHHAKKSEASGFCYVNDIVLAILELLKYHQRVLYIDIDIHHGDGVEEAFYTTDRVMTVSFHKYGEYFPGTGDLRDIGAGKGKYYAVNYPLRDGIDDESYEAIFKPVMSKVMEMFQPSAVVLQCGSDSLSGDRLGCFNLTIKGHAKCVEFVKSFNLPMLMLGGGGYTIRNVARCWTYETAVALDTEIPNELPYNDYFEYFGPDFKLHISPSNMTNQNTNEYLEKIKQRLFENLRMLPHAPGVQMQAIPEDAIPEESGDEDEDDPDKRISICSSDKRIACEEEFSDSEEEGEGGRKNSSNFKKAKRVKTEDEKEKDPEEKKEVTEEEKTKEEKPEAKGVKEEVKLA
Protocol: Experimental Example 1. Confirmation of HDAC Enzyme Activity Inhibition (In Vitro)
as §1

Row | SMILES | IC50 (HDAC6 human recombinant) [nM] | IC50 (HDAC1) [nM]
1 | CN1CC2(C1)CN(C(=S)N(Cc1ccc(-c3nnc(C(F)F)o3)cc1F)c1ccc(F)cc1F)C2 [Compound 12, N-(4-(5-(difluoromethyl)-1,3,4-oxadiazol-2-yl)-2-fluorobenzyl)-N-(2,4-difluorophenyl)-6-methyl-2,6-diazaspiro[3.3]heptan-2-carbothioamide] | 135 | > 10000
2 | CN1C[C@@H]2C[C@H]1CN2C(=S)N(Cc1ccc(-c2nnc(C(F)F)o2)cc1F)c1ccc(F)cc1 [Compound 39, (1S,4S)—N-(4-(5-(difluoromethyl)-1,3,4-oxadiazol-2-yl)-2-fluorobenzyl)-N-(4-fluorophenyl)-5-methyl-2,5-diazabicyclo[2.2.1]heptan-2-carbothioamide] | 30 | > 10000
3 | Fc1ccc(N(Cc2ccc(-c3nnc(C(F)F)o3)cc2F)C(=S)N2C[C@@H]3C[C@H]2CN3C2COC2)cc1F [Compound 43, (1S,4S)—N-(4-(5-(difluoromethyl)-1,3,4-oxadiazol-2-yl)-2-fluorobenzyl)-N-(3,4-difluorophenyl)-5-(oxetan-3-yl)-2,5-diazabicyclo[2.2.1]heptan-2-carbothioamide] | 77 | > 10000
4 | CN1CC2(C1)CN(C(=S)N(Cc1ccc(-c3nnc(C(F)F)o3)cc1)c1ccc(F)c(F)c1)C2 [Compound 30, N-(4-(5-(difluoromethyl)-1,3,4-oxadiazol-2-yl)benzyl)-N-(3,4-difluorophenyl)-6-methyl-2,6-diazaspiro[3.3]heptan-2-carbothioamide] | 24 | > 10000
5 | CN1CC2(C1)CN(C(=S)N(Cc1ccc(-c3nnc(C(F)F)o3)cc1F)c1cccc(F)c1)C2 [Compound 36, N-(4-(5-(difluoromethyl)-1,3,4-oxadiazol-2-yl)-2-fluorobenzyl)-N-(3-fluorophenyl)-6-methyl-2,6-diazaspiro[3.3]heptan-2-carbothioamide] | 43 | > 10000
6 | FC(F)c1nnc(-c2ccc(CN(C(=S)N3CCN(C4COC4)CC3)c3ccccc3)cc2)o1 [Compound 5, N-(4-(5-(difluoromethyl)-1,3,4-oxadiazol-2-yl)benzyl)-4-(oxetan-3-yl)-N-phenylpiperazin-1-carbothioamide] | 37 | > 10000
7 | CN1CC2(C1)CN(C(=S)N(Cc1ccc(-c3nnc(C(F)F)o3)cc1F)c1ccccc1)C2 [Compound 10, N-(4-(5-(difluoromethyl)-1,3,4-oxadiazol-2-yl)-2-fluorobenzyl)-6-methyl-N-phenyl-2,6-diazaspiro[3.3]heptan-2-carbothioamide] | 45 | > 10000
8 | CC(C)N1CC2(CN(C(=S)N(Cc3ccc(-c4nnc(C(F)F)o4)cc3F)c3ccc(F)c(Cl)c3)C2)C1 [Compound 28, N-(3-chloro-4-fluorophenyl)-N-(4-(5-(difluoromethyl)-1,3,4-oxadiazol-2-yl)-2-fluorobenzyl)-6-isopropyl-2,6-diazaspiro[3.3]heptan-2-carbothioamide] | 77 | > 10000
9 | Fc1ccc(N(Cc2ccc(-c3nnc(C(F)F)o3)cc2)C(=S)N2CC3(C2)CN(C2COC2)C3)cc1 [Compound 22, N-(4-(5-(difluoromethyl)-1,3,4-oxadiazol-2-yl)benzyl)-N-(4-fluorophenyl)-6-(oxetan-3-yl)-2,6-diazaspiro[3.3]heptan-2-carbothioamide] | 83 | > 10000
10 | CC(C)N1CC2(CN(C(=S)N(Cc3ccc(-c4nnc(C(F)F)o4)cc3)c3ccc(F)c(F)c3)C2)C1 [Compound 31, N-(4-(5-(difluoromethyl)-1,3,4-oxadiazol-2-yl)benzyl)-N-(3,4-difluorophenyl)-6-isopropyl-2,6-diazaspiro[3.3]heptan-2-carbothioamide] | 35 | > 10000
11 | CC(C)N1CC2(CN(C(=S)N(Cc3ccc(-c4nnc(C(F)F)o4)cc3)c3ccc(F)cc3)C2)C1 [Compound 21, N-(4-(5-(difluoromethyl)-1,3,4-oxadiazol-2-yl)benzyl)-N-(4-fluorophenyl)-6-isopropyl-2,6-diazaspiro[3.3]heptan-2-carbothioamide] | 70 | > 10000
12 | Fc1ccc(N(Cc2ccc(-c3nnc(C(F)F)o3)cc2)C(=S)N2CC3(C2)CN(C2COC2)C3)cc1Cl [Compound 27, N-(3-chloro-4-fluorophenyl)-N-(4-(5-(difluoromethyl)-1,3,4-oxadiazol-2-yl)benzyl)-6-(oxetan-3-yl)-2,6-diazaspiro[3.3]heptan-2-carbothioamide] | 112 | > 10000

Second part, the molecule after the results:

Row | IC50 (HDAC6 human recombinant) [nM] | IC50 (HDAC1) [nM] | SMILES
13 | 37 | > 10000 | CN1CCN(C(=S)N(Cc2ccc(-c3nnc(C(F)F)o3)cc2)c2ccccc2)CC1 [Compound 4, N-(4-(5-(difluoromethyl)-1,3,4-oxadiazol-2-yl)benzyl)-4-methyl-N-phenylpiperazin-1-carbothioamide]
14 | 138 | > 10000 | Fc1cc(-c2nnc(C(F)F)o2)ccc1CN(C(=S)c1ccncc1)c1ccccc1 [Compound 9, N-(4-(5-(difluoromethyl)-1,3,4-oxadiazol-2-yl)-2-fluorobenzyl)-N-phenylpyridin-4-carbothioamide]
15 | 41 | > 10000 | CN1CC2(C1)CN(C(=S)N(Cc1ccc(-c3nnc(C(F)F)o3)cc1F)c1ccc(F)cc1)C2 [Compound 17, N-(4-(5-(difluoromethyl)-1,3,4-oxadiazol-2-yl)-2-fluorobenzyl)-N-(4-fluorophenyl)-6-methyl-2,6-diazaspiro[3.3]heptan-2-carbothioamide]
16 | 67 | > 10000 | CC(C)N1CC2(CN(C(=S)N(Cc3ccc(-c4nnc(C(F)F)o4)cc3F)c3cccc(F)c3)C2)C1 [Compound 37, N-(4-(5-(difluoromethyl)-1,3,4-oxadiazol-2-yl)-2-fluorobenzyl)-N-(3-fluorophenyl)-6-isopropyl-2,6-diazaspiro[3.3]heptan-2-carbothioamide]
17 | 75 | > 10000 | CN1CCC2(CC1)CC(C(=S)N(Cc1ccc(-c3nnc(C(F)F)o3)cc1F)c1ccccc1)C2 [Compound 8, N-(4-(5-(difluoromethyl)-1,3,4-oxadiazol-2-yl)-2-fluorobenzyl)-7-methyl-N-phenyl-7-azaspiro[3.5]nonan-2-carbothioamide]
18 | 39 | > 10000 | CN1CC2(C1)CN(C(=S)N(Cc1ccc(-c3nnc(C(F)F)o3)cc1)c1cccc(F)c1)C2 [Compound 14, N-(4-(5-(difluoromethyl)-1,3,4-oxadiazol-2-yl)benzyl)-N-(3-fluorophenyl)-6-methyl-2,6-diazaspiro[3.3]heptan-2-carbothioamide]
19 | 60 | > 10000 | CN1CC2(C1)CN(C(=S)N(Cc1ccc(-c3nnc(C(F)F)o3)cc1)c1ccc(F)cc1)C2 [Compound 20, N-(4-(5-(difluoromethyl)-1,3,4-oxadiazol-2-yl)benzyl)-N-(4-fluorophenyl)-6-methyl-2,6-diazaspiro[3.3]heptan-2-carbothioamide]
20 | 54 | > 10000 | Fc1ccc(N(Cc2ccc(-c3nnc(C(F)F)o3)cc2F)C(=S)N2CC3(C2)CN(C2COC2)C3)cc1 [Compound 19, N-(4-(5-(difluoromethyl)-1,3,4-oxadiazol-2-yl)-2-fluorobenzyl)-N-(4-fluorophenyl)-6-(oxetan-3-yl)-2,6-diazaspiro[3.3]heptan-2-carbothioamide]
21 | 54 | > 10000 | Fc1cccc(N(Cc2ccc(-c3nnc(C(F)F)o3)cc2)C(=S)N2CC3(C2)CN(C2COC2)C3)c1 [Compound 15, N-(4-(5-(difluoromethyl)-1,3,4-oxadiazol-2-yl)benzyl)-N-(3-fluorophenyl)-6-(oxetan-3-yl)-2,6-diazaspiro[3.3]heptan-2-carbothioamide]
